Legend:
[1] = test system: Hordeum vulgare (winter barley, HORVW); experiment: Greenhouse postemergence crop phytotoxicity HORVW; assay type: in vivo; conditions: HORVW; alone, 560 g/ha
Experimental: (§1) Seeds of the desired test plant species were planted in a 90:10% v/v (volume/volume) mixture of PRO-MIX® BX (Premier Tech Horticulture, Quakertown, PA, USA) and PROFILE® GREENS GRADE™ (Profile Products LLC, Buffalo Grove, IL, USA) planting mixture, which typically has a pH of 5.2 to 6.2 and an organic matter content of at least 50 percent, in plastic pots with a surface area of 103.2 square centimeters (cm^2). […] The plants were grown for 7-36 days (d) in a greenhouse with an approximate 14-hour (h) photo-period which was maintained at about 23° C. during the day and 22° C. during the night. Nutrients and water were added on a regular basis and supplemental lighting was provided with overhead metal halide 1000-Watt lamps as necessary. The plants were employed for testing when they reached the second or third true leaf stage.
(§2) Emulsifiable concentrates of each of each pyridine carboxylate herbicide (Compound A or Compound B) were prepared at 100 grams acid equivalent per liter (g ae/L). The emulsifiable concentrates also included a safener, cloquintocet-mexyl, at 120 grams active ingredient per liter (g ai/L), unless otherwise noted below. An aliquot of each emulsifiable concentrate was placed in a 25 mL glass vial and diluted with an aqueous mixture of 1.25% (v/v) ACTIROB® B esterified rapeseed oil (Bayer Crop Science, Research Triangle Park, NC, USA) or MSO® Concentrate with LECI-TECH® methylated soybean oil (Loveland Products, Loveland, CO, USA) to obtain concentrated stock solutions at the highest application rate for each herbicide, based upon a 12 milliliter (mL) application volume at a rate of 187 liters per hectare (L/ha). The concentrated stock solutions were further diluted with an aqueous mixture of 1.25% v/v ACTIROB® B or MSO® Concentrate with LECI-TECH® to obtain stock solutions at reduced application rates for each herbicide. Spray solutions of the herbicide combinations (Compound A or Compound B plus synthetic auxin herbicide or auxin transport inhibitor) were prepared by adding weighed amounts or aliquots of the synthetic auxin herbicide or auxin transport inhibitor to the stock solutions of Compound A or Compound B to form 12-mL spray solutions in two-way combinations.
(§3) The spray solutions were applied to the plant material with an overhead Mandel track sprayer equipped with 8002E nozzles calibrated to deliver 187 L/ha over an application area of 0.503 square meters (m^2) at a spray height of 18 inches (43 centimeters (cm)) above the average plant canopy. Control plants were sprayed in the same manner with the solvent blank. All pyridine carboxylate herbicide (component a) application rates are given as “g ae/ha” and all synthetic auxin herbicide or auxin transport inhibitor (component b) application rates are given as “g ai/ha.”
(§4) The treated plants and control plants were placed in a greenhouse as described above and watered by sub-irrigation to prevent wash-off of the test compounds. After 20-22 d, the condition of the test plants as compared with that of the control plants was determined visually and scored on a scale of 0 to 100 percent where 0 corresponds to no injury and 100 corresponds to complete kill.

[2] = test system: Brassica napus (spring rape, BRSNN); experiment: Greenhouse postemergence trial BRSNN; assay type: in vivo; conditions: BRSNN; alone 280 g/ha
Experimental: (§5) The plants were grown for 7-36 days (d) in a greenhouse with an approximate 14-hour (h) photo-period which was maintained at about 23° C. during the day and 22° C. during the night. Nutrients and water were added on a regular basis and supplemental lighting was provided with overhead metal halide 1000-Watt lamps as necessary. The plants were employed for testing when they reached the second or third true leaf stage.
(§6) The emulsifiable concentrates also included a safener, cloquintocet-mexyl, at 120 grams active ingredient per liter (g ai/L), unless otherwise noted below.
(§7) Control plants were sprayed in the same manner with the solvent blank. All pyridine carboxylate herbicide (component a) application rates are given as “g ae/ha” and all synthetic auxin herbicide or auxin transport inhibitor (component b) application rates are given as “g ai/ha.”
as §4

[3] = test system: Papaver rhoeas (corn poppy, PAPRH); experiment: Greenhouse postemergence trial PAPRH; assay type: in vivo; conditions: Papaver rhoeas, post-emergence, read-out: % visual injury Obs
Experimental: as §1, §2, §3, §4

[4] = test system: Cyanus segetum (cornflower, CENCY); experiment: Greenhouse postemergence trial CENCY; assay type: in vivo; conditions: Centaurea cyanus, post-emergence, read-out: % visual injury Obs
[5] = test system: Anthemis arvensis (field chamomile, ANTAR); experiment: Greenhouse postemergence trial ANTAR; assay type: in vivo; conditions: Anthemis arvensis, post-emergence, read-out: % visual injury Obs
Experimental: as §1, §2, §3, §4

[6] = test system: Lamium purpureum (purple deadnettle, LAMPU); experiment: Greenhouse postemergence trial LAMPU; conditions: Lamium purpureum, post-emergence, read-out: % visual injury Obs
Experimental: as §5, §6, §7, §4

[7] = test system: Papaver rhoeas (corn poppy), herbicide-resistant (PAPRH-R); experiment: Greenhouse postemergence trial PAPRH-R; assay type: in vivo; conditions: Papaver rhoeas, post-emergence, read-out: % visual injury Obs
[8] = test system: Matricaria inodora (false chamomile, MATIN); experiment: Greenhouse postemergence trial MATIN; assay type: in vivo; conditions: Tripleurospermum inodorum, post-emergence, read-out: % visual injury Obs
[9] = test system: Cirsium arvense (Canadian thistle, CIRAR); experiment: Greenhouse postemergence trial CIRAR; assay type: in vivo; conditions: CIRAR
[10] = test system: Hordeum vulgare (spring barley, HORVS); assay type: in vivo; conditions: HORVS
[11] = test system: Amaranthus retroflexus (pigweed, AMARE); experiment: Greenhouse postemergence trial AMARE; assay type: in vivo; conditions: AMARE; alone 280 g/ha;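 also: Greenhouse-grown plants sprayed at second to third true leaf stage, injury rated by eye after 20-22 d versus solvent-blank sprayed controls, 0 = no injury, 100 = complete kill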
[12] = test system: Matricaria discoidea (pineapple weed, MATMT); experiment: Greenhouse postemergence trial MATMT; assay type: in vivo; conditions: Matricaria discoidea, post-emergence, read-out: % visual injury Obs
[13] = test system: Kochia scoparia (kochia, KCHSC); experiment: Greenhouse postemergence trial KCHSC; assay type: in vivo; conditions: KCHSC
Experimental: as §1, §2, §3, §4

[14] = test system: Stellaria media (chickweed, STEME); experiment: Greenhouse postemergence trial STEME; assay type: in vivo; conditions: Stellaria media, post-emergence, read-out: % visual injury Obs
[15] = test system: Triticum aestivum (winter wheat, TRZAW); experiment: Greenhouse postemergence crop phytotoxicity TRZAW; assay type: in vivo; conditions: TRZAW; alone, 560 g/ha
[16] = test system: Veronica hederifolia (ivyleaf speedwell, VERHE); experiment: Greenhouse postemergence trial VERHE; assay type: in vivo; conditions: Veronica hederifolia, post-emergence, read-out: % visual injury Obs
[17] = test system: Veronica persica (bird's-eye speedwell, VERPE); experiment: Greenhouse postemergence trial VERPE; assay type: in vivo; conditions: Veronica persica, post-emergence, read-out: % visual injury Obs
[18] = test system: Chenopodium album L. (common lambsquarters, CHEAL); experiment: Greenhouse postemergence trial CHEAL; assay type: in vivo; conditions: CHEAL; alone 280 g/ha;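 also: greenhouse plants sprayed at second to third true leaf stage, injury rated by eye after 20-22 d versus solvent-blank sprayed controls, 0 = no injury, 100 = complete kill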
[19] = test system: Capsella bursa-pastoris (shepherd's purse, CAPBP); experiment: Greenhouse postemergence trial CAPBP; assay type: in vivo; conditions: Capsella bursa-pastoris, post-emergence, read-out: % visual injury Obs
[20] = test system: Salsola kali (Russian thistle, SASKR); experiment: Greenhouse postemergence trial SASKR; assay type: in vivo; conditions: Salsola kali, post-emergence; SASKR; alone; read-out: % visual injury Obs;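 also: greenhouse plants sprayed at second or third true leaf stage, injury rated by eye after 20-22 d against solvent-blank controls, 0 meaning no injury, 100 complete kill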
[21] = test system: Viola arvensis (field violet, VIOAR); experiment: Greenhouse postemergence trial VIOAR; assay type: in vivo; conditions: Viola arvensis, post-emergence, read-out: % visual injury Obs
[22] = test system: Polygonum convolvulus (wild buckwheat, POLCO); experiment: Greenhouse postemergence trial POLCO; assay type: in vivo
[23] = test system: Viola tricolor (wild pansy, VIOTR); experiment: Greenhouse postemergence trial VIOTR; conditions: Viola tricolor, post-emergence, read-out: % visual injury Obs;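 also: greenhouse plants sprayed at second to third true leaf stage, injury rated visually after 20-22 d against solvent-blank sprayed controls, 0 meaning no injury and 100 complete kill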
Experimental: as §1, §2, §3, §4

[24] = test system: Sinapis arvensis (wild mustard, SINAR); experiment: Greenhouse postemergence trial SINAR; assay type: in vivo; conditions: SINAR
Experimental: as §5, §6, §7, §4

[25] = test system: Triticum aestivum (spring wheat, TRZAS); assay type: in vivo; conditions: TRZAS
[26] = test system: Brassica napus (winter rape, BRSNW); experiment: Greenhouse postemergence trial BRSNW; assay type: in vivo; conditions: Brassica napus, post-emergence, read-out: % visual injury Obs
[27] = test system: Matricaria chamomilla (wild chamomile, MATCH); experiment: Greenhouse postemergence trial MATCH; assay type: in vivo; conditions: MATCH;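 also: greenhouse plants sprayed at second to third true leaf stage, injury rated by eye 20-22 d later versus solvent-blank controls on 0–100 scale, 0 no injury, 100 complete kill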

O=C(O)CCCOc1ccc(Cl)cc1Cl [2,4-DB]
% visual injury Obs [1]: 0% | % visual injury (Obs) [2]: 70% | pest or weed control at 560 g/ha [3]: 100% | pest or weed control at 560 g/ha [4]: 30% | pest or weed control at 560 g/ha [5]: 10% | pest or weed control at 560 g/ha [6]: 10% | pest or weed control at 560 g/ha [7]: 30% | pest or weed control at 560 g/ha [8]: 10% | % visual injury (Obs) ([9]; alone 280 g/ha): 15% | pest or weed control ([9]; Cirsium arvense, post-emergence, alone, read-out: % visual injury Obs): 30% | % visual injury (Obs) ([10]; alone 280 g/ha): 0% | % visual injury Obs ([10]; alone, 560 g/ha): 0% | % visual injury (Obs) [11]: 60% | pest or weed control at 560 g/ha [12]: 5% | pest or weed control ([13]; Bassia scoparia, post-emergence, alone, read-out: % visual injury Obs): 30% | % visual injury (Obs) ([13]; alone 280 g/ha): 3% | pest or weed control at 560 g/ha [14]: 10% | % visual injury Obs [15]: 0% | pest or weed control at 560 g/ha [16]: 60% | pest or weed control at 560 g/ha [17]: 60% | % visual injury (Obs) [18]: 43% | pest or weed control at 560 g/ha [19]: 30% | pest or weed control [20]: 50% | pest or weed control at 560 g/ha [21]: 30% | pest or weed control at 560 g/ha ([22]; Fallopia convolvulus, post-emergence, read-out: % visual injury Obs): 30% | % visual injury (Obs) ([22]; POLCO, alone 280 g/ha): 13% | pest or weed control at 560 g/ha [23]: 60% | pest or weed control ([24]; Mutarda arvensis, post-emergence, alone, read-out: % visual injury Obs): 50% | % visual injury (Obs) ([24]; alone 280 g/ha): 30% | % visual injury (Obs) ([25]; alone 280 g/ha): 0% | % visual injury Obs ([25]; alone, 560 g/ha): 0% | plant injury at 560 g/ha [26]: 85% | % visual injury (Obs) ([27]; alone 280 g/ha): 5% | pest or weed control ([27]; Matricaria chamomilla, post-emergence, alone, read-out: % visual injury Obs): 10%

Reference: patent publication US12568967B2, “Compositions comprising pyridine carboxylate herbicides with synthetic auxin herbicides or auxin transport inhibitors” (priority 2018, dated 2026)
